Data as given in patent US8952024B2, “Herbicidal pyrimidone derivatives” (E I du Pont de Nemours and Company, priority 2009, dated 2015).

What was measured:
Format in all cases: in vivo
[1] = system: bermudagrass (Cynodon dactylon); test: Test B pre-/postemergence plant response
In short: (§1)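 Response scores were assigned visually after 13 to 15 days in a greenhouse, comparing treated pots with controls on a 0–100 scale where 100 denotes complete control. Preemergence treatments went onto freshly seeded loam/sand soil; postemergence treatments onto plants 2 to 18 cm tall.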

[2] = system: morningglory (Ipomoea coccinea); test: Test B pre-/postemergence plant response
In short: as §1

[3] = system: cocklebur (Xanthium strumarium); test: Test B pre-/postemergence plant response
In short: as §1

[4] = system: lambsquarters (Chenopodium album); test: Test B pre-/postemergence plant response
In short: as §1

[5] = system: goosegrass (Eleusine indica); test: Test B pre-/postemergence plant response
In short: as §1

[6] = system: wheat (Triticum aestivum); test: Test B pre-/postemergence plant response
In short: as §1

[7] = system: large crabgrass (Digitaria sanguinalis); test: Test B pre-/postemergence plant response
In short: as §1

[8] = system: green foxtail (Setaria viridis); test: Test B pre-/postemergence plant response
In short: as §1

wild oat (Avena fatua) = test: Test B pre-/postemergence plant response
In short: as §1

[9] = system: yellow nutsedge (Cyperus esculentus); test: Test B pre-/postemergence plant response
In short: as §1

[10] = system: umbrella sedge (Cyperus difformis); test: Test B flooded paddy test; settings: for Plant response rating, Sedge, Umbrella: Flood (flooded paddy test), 13 to 15 days
In short: (§2)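 Visual scores run from 0 (no effect) to 100 (complete control), assigned by comparison with controls 13 to 15 days after treatment. Test compounds went straight into water standing 3 cm above the soil, around plants at the 2-leaf stage kept in a greenhouse.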

[11] = system: barnyardgrass (Echinochloa crus-galli); test: Test B flooded paddy test; settings: for Plant response rating, Barnyardgrass: Flood (flooded paddy test), 13 to 15 days
In short: as §2

[12] = 31 g ai/ha, postemergence, scale 0 to 100, 0 is no effect, 100 is complete control
[13] = 62 g ai/ha, postemergence, 0 is no effect, 100 is complete control, 13 to 15 days
[14] = 250 g ai/ha, Preemergence, 0 to 100 scale
[15] = Postemergence, 125 g ai/ha, visual rating after 13 to 15 days, scale 0 (no effect) to 100 (complete control)
[16] = Postemergence, 250 g ai/ha, scale 0 to 100 (0 no effect, 100 complete control)
[17] = Preemergence, 31 g ai/ha, scale 0 to 100 (0 no effect, 100 complete control)
[18] = Preemergence, 62 g ai/ha, scale 0 to 100 (0 no effect, 100 complete control)
[19] = Preemergence, 125 g ai/ha, scale 0 to 100, 0 no effect, 100 complete control
[20] = 250 g ai/ha, flooded paddy test, visual rating on 0 to 100 scale (0 no effect, 100 complete control) after 13 to 15 days
[21] = 62 g ai/ha, scale of 0 to 100 where 0 is no effect and 100 is complete control
[22] = 125 g ai/ha, scale 0 to 100, 0 is no effect, 100 is complete control
[23] = Flood, 31 g ai/ha, scale 0 to 100 (0 no effect, 100 complete control)

## CCCCc1ncc(C(=O)C2=C(O)CCCC2=O)c(=O)n1-c1ccc(C)cc1 [Compound 67]
[1]; [12]
  Plant response rating, Bermudagrass: 35
[1]; [13]
  Bermudagrass plant response rating (0 to 100 scale): 70
[1]; [14]
  Plant response rating, Bermudagrass: 100
[1]; [15]
  Plant response rating, Bermudagrass: 70
[1]; [16]
  Plant response rating, Bermudagrass: 85
[1]; [17]
  Plant response rating, Bermudagrass: 45
[1]; [18]
  Plant response rating, Bermudagrass: 90
[1]; [19]
  Plant response rating, Bermudagrass: 95
[2]; [12]
  Plant response rating, Morningglory: 80
[2]; [13]
  Morningglory plant response rating (0 to 100 scale): 90
[2]; [15]
  Plant response rating, Morningglory: 95
[2]; [16]
  Plant response rating, Morningglory: 100
[2]; [17]
  Plant response rating, Morningglory: 0
[2]; [18]
  Plant response rating, Morningglory: 15
[2]; [19]
  Plant response rating, Morningglory: 15
[3]; [12]
  Plant response rating, Cocklebur: 75
[3]; [13]
  Cocklebur plant response rating (0 to 100 scale): 75
[3]; [14]
  Plant response rating, Cocklebur: 20
[3]; [15]
  Plant response rating, Cocklebur: 90
[3]; [16]
  Plant response rating, Cocklebur: 90
[3]; [17]
  Plant response rating, Cocklebur: 0
[3]; [18]
  Plant response rating, Cocklebur: 0
[3]; [19]
  Plant response rating, Cocklebur: 15
[4]; [12]
  Plant response rating, Lambsquarters: 80
[4]; [13]
  Lambsquarters plant response rating (0 to 100 scale): 95
[4]; [14]
  Plant response rating, Lambsquarters: 98
[4]; [15]
  Plant response rating, Lambsquarters: 98
[4]; [16]
  Plant response rating, Lambsquarters: 100
[4]; [17]
  Plant response rating, Lambsquarters: 98
[4]; [18]
  Plant response rating, Lambsquarters: 98
[4]; [19]
  Plant response rating, Lambsquarters: 98
[5]; [12]
  Plant response rating, Goosegrass: 55
[5]; [13]
  Goosegrass plant response rating (0 to 100 scale): 55
[5]; [14]
  Plant response rating, Goosegrass: 98
[5]; [15]
  Plant response rating, Goosegrass: 65
[5]; [16]
  Plant response rating, Goosegrass: 80
[5]; [17]
  Plant response rating, Goosegrass: 85
[5]; [18]
  Plant response rating, Goosegrass: 85
[5]; [19]
  Plant response rating, Goosegrass: 90
[6]; [12]
  Plant response rating, Wheat: 5
[6]; [13]
  Wheat plant response rating (0 to 100 scale): 5
[6]; [15]
  Plant response rating, Wheat: 25
[6]; [16]
  Plant response rating, Wheat: 25
[6]; [17]
  Plant response rating, Wheat: 0
[6]; [18]
  Plant response rating, Wheat: 0
[6]; [19]
  Plant response rating, Wheat: 0
[7]; [12]
  Plant response rating, Crabgrass, Large: 75
[7]; [13]
  Crabgrass, Large plant response rating (0 to 100 scale): 80
[7]; [14]
  Plant response rating, Crabgrass, Large: 100
[7]; [15]
  Plant response rating, Crabgrass, Large: 90
[7]; [16]
  Plant response rating, Crabgrass, Large: 95
[7]; [17]
  Plant response rating, Crabgrass, Large: 40
[7]; [18]
  Plant response rating, Crabgrass, Large: 65
[7]; [19]
  Plant response rating, Crabgrass, Large: 98
[8]; [12]
  Plant response rating, Foxtail, Green: 10
[8]; [13]
  Foxtail, Green plant response rating (0 to 100 scale): 80
[8]; [14]
  Plant response rating, Foxtail, Green: 40
[8]; [15]
  Plant response rating, Foxtail, Green: 80
[8]; [16]
  Plant response rating, Foxtail, Green: 95
[8]; [17]
  Plant response rating, Foxtail, Green: 0
[8]; [18]
  Plant response rating, Foxtail, Green: 30
Wild oat (Avena fatua); [12]
  Plant response rating, Oat, Wild: 0
Wild oat (Avena fatua); [13]
  Oat, Wild plant response rating (0 to 100 scale): 5
Wild oat (Avena fatua); [15]
  Plant response rating, Oat, Wild: 10
Wild oat (Avena fatua); [16]
  Plant response rating, Oat, Wild: 10
Wild oat (Avena fatua); [17]
  Plant response rating, Oat, Wild: 0
Wild oat (Avena fatua); [18]
  Plant response rating, Oat, Wild: 0
Wild oat (Avena fatua); [19]
  Plant response rating, Oat, Wild: 0
[9]; [12]
  Plant response rating, Nutsedge, Yellow: 60
[9]; [13]
  Nutsedge, Yellow plant response rating (0 to 100 scale): 65
[9]; [15]
  Plant response rating, Nutsedge, Yellow: 65
[9]; [16]
  Plant response rating, Nutsedge, Yellow: 70
[9]; [17]
  Plant response rating, Nutsedge, Yellow: 0
[9]; [18]
  Plant response rating, Nutsedge, Yellow: 65
[9]; [19]
  Plant response rating, Nutsedge, Yellow: 65
[10]; [20]
  Plant response rating, Flood, Sedge, Umbrella: 0
[10]; [21]
  Plant response rating, Sedge, Umbrella: 0
[10]; [22]
  Plant response rating, Sedge, Umbrella: 0
[10]; [23]
  Sedge, Umbrella plant response rating: 0
[11]; [20]
  Plant response rating, Flood, Barnyardgrass: 0
[11]; [21]
  Plant response rating, Barnyardgrass: 0
[11]; [22]
  Plant response rating, Barnyardgrass: 0
[11]; [23]
  Barnyardgrass plant response rating: 0
